Assay [1] has as its system SK-OV-3 human ovarian carcinoma cell line. In words: WST-1 cell viability assay, SK-OV-3. The format is cell-based. As to conditions: Homo sapiens, SK-OV-3; WST-1, 24 h treatment, mean ± S.D of three independent experiments. The text has this: The synthesized compounds were screened for their cytotoxicity on five cancer cell lines, namely SK-OV-3, MCF-7, MDA-MB-231, HCT-116 and RKO, using a WST colorimetric assay. The assay principle is based upon the reduction of the tetrazolium salt WST-1 to formazan by cellular mitochondrial dehydrogenases present in viable cells. […] Among the latter compounds the benzohydrazide derivative 9a emerged with the lowest IC50 in this study against MCF-7 cells compared to 5-FU. […] Based on the fact that 9a had less cytotoxic effects on normal breast epithelial cells it was subjected to further studies.
The following cell lines were used for the screening stage, obtained from the American Type Culture Collection (ATCC, Manassas, VA, USA); SK-OV-3 (HTB-77), MCF-12A (ATCC CRL-10782), MDA-MB-231 (ATCC HTB-26), HCT-116 (CCL-247), RKO (CRL-2577) and sub-culturing of the above cell lines was conducted in 75 cm^2 flasks. The old culture media was removed and discarded after assessing the confluency of the cells and the cells were rinsed with 2–3 mL diluted trypsin (1×) (trypsin/EDTA solution consists of 0.025% trypsin and 0.01% EDTA in PBS), for about 5 minutes for complete detachment. The cells were observed under the inverted microscope until the cell layer is completely dispersed. 75 cm^2 flasks were prepared and 16 mL of DMEM media for SK-OV-3, MCF-7, MDA-MB-231, (DMEM 4500 mg glucose) and RPMI media for HCT-116 were added to each flask. The cells were aspirated gently and added to the flasks. DMEM 4500 mg/L high glucose with 10% FBS, 5% streptomycin and penicillin, RPMI 1640 (prepared by adding 5% heat-inactivated FCS and 2 mm glutamine) were used. DMEM was also used for MCF-12A cells with the addition of human epidermal growth factor 20 ng/mL, insulin 0.01 mg/mL and hydrocortisone 500 ng/mL.
The synthesized compounds were screened for their anti-proliferative activity using 5-FU (F6627-1G, Sigma-Aldrich, St. Louis, MO, USA) as reference compound. A concentration of 0.4% DMSO was used in all experiment after ensuring 100% viability of the cell lines with this concentration. A 25 mM stock concentration of all compounds was prepared for further studies and analysis.
Cells were trypsinized and placed in a 15 mL Falcon tube, the cells were centrifuged for 3 min at 1000 rpm. Trypsin is decanted using a sterile pipette and then the pellet is loosened by flicking the tube few times then 5–10 mL warm DMEM or RPMI were added to the Falcon tube and the pellet is resuspended. Cell count was done next by taking 10 μL of the suspension into the cell counting slide and read under 10× cells/mL. A cell stock of 50,000 cells/mL was prepared for the 96 wells. Cells (100 μL) were added to each well using a sterile pipette each time to ensure consistency. The experiment was planned ahead of time using excel sheet, 3–6 wells were reserved as blank media while 3–6 wells for vehicle (DMSO). The plate was incubated for 24 h for compound treatment step. DMEM media was used to prepare different dilutions of the compounds. The old DMEM media was removed from the wells using sterile pipette in the hood and the media was replaced with 100 μL media with each compound. The plate was incubated for 24 h. After 24 h incubation, WST-1 reagent (Sigma) was added to each well and then the plate was incubated for 1 h before measuring the absorbance using VICTOR™ Multilabel Plate Reader (Perkin Elmer, Beaconsfield, UK). The absorbance of the colored solution can be quantified by measuring at a certain wavelength (usually between 500–600 nm), in this experiment the first reading was conducted at 540 nm and the second reading at 690 nm for the reference wavelength. The percentage of cell viability was determined as the ratio of the absorbance of the sample vs the control. Three independent experiments were performed. […] 5-Florouracil (Sigma-Aldrich, F6627-1G) was used as reference standard.
On the technique in general: Tetrazolium assays rely on reduction of a dye to a coloured formazan, in cell work by metabolically active cells.

In assay [2] the test system is MCF-7 cells. As to the kind of experiment: Western blot analysis of protein expression. It is filed as cell-based, human. As for the experimental part:
Total protein was extracted from treated and untreated cells using lysis buffer (10 mM Tris-HCl (pH 7.5), 1 mM EDTA, 1% Triton X-100, 150 mM NaCl, 1 mM dithiothretol, 10% glycerol, 0.2 mM phenylmethysulphonyl fluoride and protease inhibitors) for 30–50 min on ice. The extracts were centrifuged at 13,000× g for 15 min at 4 °C to remove cell debris. Folin Lowry (Pierce, Grand Island, NY, USA) protein assay was used to figure the protein concentration in the cell lysates. Proteins were resolved by electrophoresis on 8%–10% sodium dodecyl sulphate-polycrylamide gel loading equal amount of proteins per lane. The resolved proteins were transferred onto polyvinylidene difluoride (PVDF) membrane and then probed with primary antibody against the protein of interest prepared in 5% milk/PBS-T. The membrane was washed using phosphate buffer saline with Tween 20 (PBS-T) and then appropriate secondary antibody conjugated to horseradish peroxidase (HRP) was used for visualization of the bands using ECL chemiluminescence kit (GE, Fairfield, CT, USA). Anti-p27, anti-CDK2, anti-CDK4, anti-(p21), anti-(p53), anti-Bax, anti-Akt, anti-Bcl-2, anti-MDM2, anti-cytochrome C, anti-caspase-8, anti-procaspase-8, anti-FAS, anti-VEGF, anti-MMP-9, anti-β-catenin were purchased from SantaCruz (Dallas, TX, USA). Pixel density of the proteins studied was calculated using Image J, version 1.41o, NIH (Bethesda, MD, USA). The values obtained were first normalized to loading control β-actin and the fold change was measured by normalizing to that of the control (0 h) value. At least two independent experiments were performed.

By IC50 is commonly meant the concentration that inhibits the measured activity by half. Read a high IC50 as weaker potency.

With `COc1ccc(-c2cc(-c3ccc(OC)c(OC)c3)c(C#N)c(OCC(=O)NNC(=O)c3ccccc3)n2)cc1OC` [Compound 9a, N'-[2-(3-cyano-4,6-bis(3,4-dimethoxyphenyl)pyridin-2-yloxy)acetyl]benzohydrazide], in assay [1], the IC50 was determined as 9.06 ± 0.24 µM. In assay [2] (2 μM, 24 h), the “expression of CDK2” value was “decreased”, the “expression of CDK4” value is reported as “decreased”, the “expression of MMP-9” value is “significantly inhibited” and the “expression of VEGF” value is on record as “significantly inhibited”. Also, in assay [2] (2 μM, 24 h), the “expression of caspase-3” value is on record as “up-regulated”, the “expression of p27” value is on record as “increased”, the “level of Akt” value is listed as “decreased” and the “level of Bcl-2 protein” value was “decreased”. In assay [2] (2 μM, 24 h), the “level of MDM2” value is “decreased” and the “level of procaspase 3” value is recorded as “decreased”. Moreover, the “expression of cytochrome c in cytoplasm” value in assay [2] (2 μM, 24 h, cytosol fraction) is given as “increased”. The “expression of cytochrome c in mitochondria” value in assay [2] (2 μM, 24 h, mitochondrial fraction) is given as “reduced”. In assay [2] (2 μM, 24 h, vs untreated cells), the “level of Bax” value was “increased”, the “level of p21” value is on record as “increased” and the “level of p53” value is “increased”. Moreover, in assay [2] (0.5, 1 and 2 μM, 24 h), the “expression of phospho AKT” value is “reduced the expression of phospho AKT and β-catenin in dose-dependent manner”; the “expression of β-catenin” value was “reduced the expression of phospho AKT and β-catenin in dose-dependent manner”. Besides, in assay [2] (treated vs untreated), the “expression of FAS” value is reported as “no significant change”, the “expression of caspase-8” value is “no significant change” and the “expression of procaspase-8” value is on record as “no significant change”.

(Values after article PMC6274259, “New 3-Cyano-2-Substituted Pyridines Induce Apoptosis in MCF 7 Breast Cancer Cells” (Molecules, 2016).)
